Reference: patent publication US9790169B2, “IDO inhibitors” (BRISTOL-MYERS SQUIBB COMPANY, priority 2015, dated 2017)
pIC50: −log10 of the molar value.

Molecular target: human IDO1 (Homo sapiens, UniProt P14902)
Experiment: Assessment of human IDO-1 inhibitory activity in Hela cells (Interferon-gamma stimulated HeLa cells, Ehrlich reagent, absorbance 490 nm)
Type: cell-based
Set-up: endogenous in cells; host or cells: HeLa cells stimulated with interferon-gamma
Settings: Hela Human IDO-1 cellular assay
How it was run: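 IDO activity induced by 18 h IFN-γ (human 10 ng/ml or murine 5 ng/ml, final) after 1 h compound pre-treatment of HeLa cells at 37 °C. Supernatant kynurenine detected via Ehrlich reagent absorbance at 490 nm following 3% TCA at 50 °C; IC50 set against no-IFN-γ and untreated-stimulated controls.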

Chain of human IDO1 (P14902 whole entry): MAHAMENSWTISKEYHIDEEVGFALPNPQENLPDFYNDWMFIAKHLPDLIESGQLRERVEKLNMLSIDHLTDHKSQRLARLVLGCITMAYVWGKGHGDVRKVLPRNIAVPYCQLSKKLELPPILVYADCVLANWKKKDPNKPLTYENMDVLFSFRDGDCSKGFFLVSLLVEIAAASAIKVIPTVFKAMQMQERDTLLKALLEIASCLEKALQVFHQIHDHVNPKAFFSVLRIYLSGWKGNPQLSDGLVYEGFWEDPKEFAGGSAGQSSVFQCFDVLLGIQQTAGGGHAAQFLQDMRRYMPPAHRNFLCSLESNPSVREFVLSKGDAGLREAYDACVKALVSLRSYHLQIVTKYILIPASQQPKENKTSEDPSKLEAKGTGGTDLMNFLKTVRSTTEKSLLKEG

Compound | pIC50
CCOc1ncc(Nc2cc(C(CC)CC(=O)O)ccc2N(CC)C2CCN(Cc3ccccc3)CC2)cn1 (single isomer, unassigned) [Example 939, 3-(4-((1-Benzylpiperidin-4-yl)(ethyl)amino)-3-((2-ethoxypyrimidin-5-yl)amino)phenyl)pentanoic acid] | > 7.30
CCC(CC(=O)O)c1cnc(N(CC)C2CCOCC2)c(NC(=O)Nc2ccc(C)cc2)c1 (racemic) [Example 1377, (+/−)-3-(6-(Ethyl(tetrahydro-2H-pyran-4-yl)amino)-5-(3-(p-tolyl)ureido)pyridin-3-yl)pentanoic acid] | > 7.30
CCOc1ncc(Nc2cc(C3(CC(=O)O)CCOCC3)ccc2N(CC)C2CCOCC2)cn1 [Example 153, 2-(4-(3-((2-Ethoxypyrimidin-5-yl)amino)-4-(ethyl(tetrahydro-2H-pyran-4-yl)amino)phenyl)tetrahydro-2H-pyran-4-yl)acetic acid] | < 7.30
CCN(c1ccc(C(CC(=O)O)C2CC2)cc1Nc1cnc(OC)nc1)C1CCOCC1 (single isomer, unassigned) [Example 35, 3-cyclopropyl-3-(4-(ethyl(tetrahydro-2H-pyran-4-yl)amino)-3-((2-methoxypyrimidin-5-yl)amino)phenyl)propanoic acid] | > 7.30
CCC1COCCN1c1ccc([C@H](COC)CC(=O)O)cc1Nc1cnc(OC)nc1 (single isomer, unassigned) [Example 1290] | < 7.30
CCC1COCCN1c1ccc([C@H](COC)CC(=O)O)cc1Nc1ccc(F)cc1 (single isomer, unassigned) [Example 1309] | > 7.30
CCC(CC(=O)O)c1cnc(N(CC)C2CCOCC2)c(Nc2ccc(C#N)cc2)c1 (racemic) [Example 1379] | > 8.30
CCC(CC(=O)O)c1cc(F)c(N(CC)C2CCOCC2)c(Nc2ccc(OC)nc2)c1 (single isomer, unassigned) [Example 137, 3-(4-(ethyl(tetrahydro-2H-pyran-4-yl)amino)-3-fluoro-5-((6-methoxypyridin-3-yl)amino)phenyl) pentanoic acid] | > 7.30
COCC(CC(=O)O)c1ccc(N2CCOC[C@@H]2C(C)C)c(Nc2ccc(Cl)cc2)c1 (single isomer, unassigned) [Example 930] | > 7.30
CCC(CC(=O)O)c1ccc(N2CCC(C)CC2)c(NC(=O)Nc2ccc(C)cc2)c1 (single isomer, unassigned) [Example 46 Enantiomer 1, 3-(4-(4-Methylpiperidin-1-yl)-3-(3-(p-tolyl)ureido)phenyl)pentanoic acid] | < 7.30
CCC(CC(=O)O)c1ccc(N2CCOC(C)(C)C2)c(Nc2ccc(Cl)cc2)c1 (single isomer, unassigned) [Example 1319 E1, 3-(3-((4-Chlorophenyl)amino)-4-(2,2-dimethylmorpholino)phenyl)pentanoic acid] | > 7.30
CC[C@@H](CC(=O)O)c1ccc(N(CC)C2CCOCC2)c(Nc2cnc(OC)cn2)c1 (single isomer, unassigned) [Example 464] | > 8.30
CCC(CC(=O)O)c1ccc(N2C[C@@H]3C[C@H]2CN3C(=O)OC(C)(C)C)c(Nc2ccc(C#N)cc2)c1 (single isomer, unassigned) [Example 443 Diastereomer 1] | > 8.30
CCOc1ncc(Nc2cc(C(CC)CC(=O)O)c(F)cc2N(CC)C2CCOCC2)cn1 (single isomer, unassigned) [Example 860, 3-(5-((2-ethoxy-pyrimidin-5-yl)amino)-4-(ethyl(tetra-hydro-2H-pyran-4-yl)amino)-2-fluorophenyl) pentanoic acid] | > 8.30
CCOc1ncc(Nc2cc(C(COC)CC(=O)O)ccc2N(C)C2CCOCC2)cn1 (single isomer, unassigned) [Example 878, 3-(3-((2-ethoxypyrimidin-5-yl)amino)-4-(methyl (tetrahydro-2H-pyran-4-yl)amino)phenyl)-4-methoxybutanoic acid] | < 7.30
CCN(c1ccc(C(CC)(CC)CC(=O)O)cc1Nc1ccc(Cl)cc1)C1CCOCC1 [Example 26, 3-(3-((4-Chlorophenyl)amino)-4-(ethyl(tetrahydro-2H-pyran-4-yl)amino)phenyl)-3-ethylpentanoic acid] | > 8.30
CCOc1ncc(Nc2cc([C@H](CC)CNS(=O)(=O)CC)ccc2N(CC)C2CCOCC2)cn1 [Example 1325, (S)-N-(2-(3-((2-Ethoxypyrimidin-5-yl)amino)-4-(ethyl(tetrahydro-2H-pyran-4-yl)amino)phenyl)butyl)ethanesulfonamide] | > 7.30
COCC(CC(=O)O)c1ccc(N2CCOC[C@@H]2C(C)C)c(Nc2ccc(C#N)cc2)c1 (single isomer, unassigned) [Example 929] | > 7.30

Compound | pIC50
CCOc1ccc(Nc2cc([C@H](CC)CC(=O)O)ccc2N(CC)C2CCOCC2)nn1 (single isomer, unassigned) [Example 510] | > 8.30
CCC(CC(=O)O)c1ccc(N2CCOCC2)c(Nc2ccc(C#N)cc2)c1 (single isomer, unassigned) [Example 6 Enantiomer 1, 3-(3-((4-Cyanophenyl)amino)-4-morpholinophenyl)pentanoic acid] | < 7.30
CCN(c1ccc([C@H](CC(=O)O)C(F)(F)F)cc1NC(=O)Nc1ccc(Cl)cc1F)C1CCOCC1 (single isomer, unassigned) [Example 1267] | > 8.30
COCC(CC(=O)O)c1ccc(N2CCC(c3ccccc3)CC2)c(NC(=O)Nc2ccc(Cl)cc2F)c1 (single isomer, unassigned) [Example 1357 E2, 3-(3-(3-(4-Chloro-2-fluorophenyl)ureido)-4-(4-phenylpiperidin-1-yl)phenyl)-4-methoxybutanoic acid] | > 7.30
CCCN(c1ccc(C(COC)CC(=O)O)cc1Nc1ccc(F)cc1)C1CCS(=O)(=O)CC1 (single isomer, unassigned) [Example 184, 3-(4-((1,1-dioxidotetrahydro-2H-thiopyran-4-yl)(propyl)amino)-3-((4-fluorophenyl)amino)phenyl)-4-methoxybutanoic acid] | > 8.30
CCN(c1ccc(C2(CC(=O)O)CCOCC2)cc1NC(=O)Nc1ccc(C)cc1)C1CCOCC1 [Example 157, 2-(4-(4-(Ethyl(tetrahydro-2H-pyran-4-yl)amino)-3-(3-(p-tolyl)ureido)phenyl)tetrahydro-2H-pyran-4-yl)acetic acid] | < 7.30
COCCN(c1ccc(C(C)(C)CC(=O)O)cc1NC(=O)Nc1ccc(Cl)cc1F)C1CCOCC1 [Example 20, 3-(3-(3-(4-chloro-2-fluorophenyl)ureido)-4-((2-methoxyethyl)(tetrahydro-2H-pyran-4-yl)amino)phenyl)-3-methylbutanoic acid] | > 7.30
CCN(c1c(F)cc(C(COC)CC(=O)O)cc1Nc1ccc(C#N)cc1)C1CCOCC1 (single isomer, unassigned) [Example 918, 3-(3-((4-Cyanophenyl)amino)-4-(ethyl(tetrahydro-2H-pyran-4-yl)amino)-5-fluorophenyl)-4-methoxybutanoic acid] | > 7.30
CCC(CC(=O)O)c1ccc(N(CC(F)F)C2CCOCC2)c(Nc2ccc(Cl)cc2)c1 (single isomer, unassigned) [Example 318 Enantiomer 1, 3-(3-((4-Chlorophenyl)amino)-4-((2,2-difluoroethyl)(tetrahydro-2H-pyran-4-yl)amino)phenyl)pentanoic acid] | > 8.30
CCNC(=O)NC[C@@H](CC)c1ccc(N(CC)C2CCOCC2)c(Nc2cnc(OCC)nc2)c1 [Example 1366, (S)-1-(2-(3-((2-Ethoxypyrimidin-5-yl)amino)-4-(ethyl(tetrahydro-2H-pyran-4-yl)amino)phenyl)butyl)-3-ethylurea] | < 7.30
CCN(c1ccc([C@@H](COC)CC(=O)O)cc1NC(=O)Nc1ccc(F)cc1F)C1CCOCC1 (single isomer, unassigned) [Example 431] | < 7.30
CCOc1ncc(Nc2cc(C(COC)CC(=O)O)ccc2N2CCC(c3ccccc3)CC2)cn1 (single isomer, unassigned) [Example 1354, 3-(3-((2-ethoxypyrimidin-5-yl)amino)-4-(4-phenylpiperidin-1-yl)phenyl)-4-methoxybutanoic acid] | > 8.30
CCN(c1ccc([C@@H](CC(=O)O)C(F)(F)F)cc1NC(=O)Nc1ccc(C)cc1)C1CCOCC1 (single isomer, unassigned) [Example 1272] | > 7.30
CCN(c1ccc(C(CC(=O)O)C2CC2)cc1NC(=O)Nc1ccc(C)cc1)C1CCOCC1 (single isomer, unassigned) [Example 40 Enantiomer 1, 3-Cyclopropyl-3-(4-(ethyl(tetrahydro-2H-pyran-4-yl)amino)-3-(3-(p-tolyl)ureido)phenyl)propanoic acid] | > 8.30
CCN(c1ccc([C@@H](COC)CC(=O)O)cc1Nc1ccc(Cl)cc1F)C1CCOCC1 (single isomer, unassigned) [Example 362] | > 8.30
CCN(c1cc(F)c([C@@H](COC)CC(=O)O)cc1NC(=O)Nc1ccc(C#N)cc1)C1CCOCC1 (single isomer, unassigned) [Example 849, 3-(5-(3-(4-Cyanophenyl)ureido)-4-(ethyl(tetrahydro-2H-pyran-4-yl)amino)-2-fluorophenyl)-4-methoxybutanoic acid] | < 7.30
CCC(CC(=O)O)c1ccc(N2CC(O)(c3ccc(F)cc3)C2)c(Nc2ccc(Cl)cc2)c1 (single isomer, unassigned) [Example 1253 E1, 3-(3-((4-Chlorophenyl)amino)-4-(3-(4-fluorophenyl)-3-hydroxyazetidin-1-yl)phenyl)pentanoic acid] | > 7.30
CCC(CC(=O)O)c1ccc(N(CC)C2CCS(=O)(=O)CC2)c(Nc2ccc(C#N)cc2)c1 (single isomer, unassigned) [Example 335, 3-(3-((4-cyanophenyl)amino)-4-((1,1-dioxidotetrahydro-2H-thiopyran-4-yl)(ethyl)amino)phenyl) pentanoic acid] | > 7.30
